Source: ChEMBL document CHEMBL5335852, “The Promiscuous Flavin-Dependent Monooxygenase PboD from Aspergillus ustus Increases the Structural Diversity of Hydroxylated Pyrroloindoline Diketopiperazines” (J Nat Prod, 2024)
The source made the active and inactive calls.

Tests used:
Format in all cases: functional, organism-based
Bacillus subtilis = experiment: Antibacterial activity against Bacillus subtilis […] assessed as inhibition of bacterial growth incubated for 20 hrs by agar disk-diffusion method
Niallia circulans = experiment: Antibacterial activity against Bacillus circulans NRRL B-380 assessed as inhibition of bacterial growth incubated for 20 hrs by agar disk-diffusion method
Staphylococcus aureus = experiment: Antibacterial activity against Staphylococcus aureus ATCC29213 assessed as inhibition of bacterial growth incubated for 20 hrs by agar disk-diffusion method
Staphylococcus delphini = experiment: Antibacterial activity against Staphylococcus delphini DSM 20771 assessed as inhibition of bacterial growth incubated for 20 hrs by agar disk-diffusion method
Escherichia coli = experiment: Antibacterial activity against Escherichia coli ATCC 35218 assessed as inhibition of bacterial growth incubated for 20 hrs by agar disk-diffusion method
Klebsiella pneumoniae = experiment: Antibacterial activity against Klebsiella pneumoniae DSM 26371 assessed as inhibition of bacterial growth incubated for 20 hrs by agar disk-diffusion method
Pseudomonas aeruginosa = experiment: Antibacterial activity against Pseudomonas aeruginosa ATCC 27853 assessed as inhibition of bacterial growth incubated for 20 hrs by agar disk-diffusion method
Enterococcus faecalis = experiment: Antibacterial activity against Enterococcus faecalis DSM 2570 assessed as inhibition of bacterial growth incubated for 20 hrs by agar disk-diffusion method

Measured: Activity

C[C@@H]1NC(=O)[C@@H]2C[C@@]3(O)c4ccccc4N[C@H]3N2C1=O
inactive: all assays above

CSCC[C@@H]1NC(=O)[C@@H]2C[C@@]3(O)c4ccccc4N[C@H]3N2C1=O
inactive: all assays above

O=C1N[C@@H](Cc2ccccc2)C(=O)N2[C@H]1C[C@@]1(O)c3ccccc3N[C@@H]21
inactive: all assays above

O=C1N[C@@H](Cc2ccc(O)cc2)C(=O)N2[C@H]1C[C@@]1(O)c3ccccc3N[C@@H]21
inactive: all assays above

O=C1N[C@@H](Cc2c[nH]c3ccccc23)C(=O)N2[C@H]1C[C@@]1(O)c3ccccc3N[C@@H]21
inactive: all assays above

CC(C)C[C@@H]1NC(=O)[C@@H]2C[C@@]3(O)c4ccccc4N[C@H]3N2C1=O
inactive: all assays above
